Data taken from US5747503A, “Selective inhibitors of biogenic amine transporters” (priority 1996, dated 1998).
Where “and” joins values, the source holds several entries; their conditions need not be identical. Identical values can stand only once. Counter-ions that a name gives are not always drawn. Like-named read-outs stand apart in the source and are kept apart here.

Key:
[1] = test system: PCP site 2; details: guinea pig brain membranes; literature; cited from earlier work
[2] = biological target: PCP site 1; experiment: [^3 H](+)-MK801 binding to PCP site 1; set-up: species or system guinea pig
Description: Large batches of frozen membranes were prepared with minor modifications of published procedures (Rothman, et al. (1989), supra). Twenty to thirty frozen guinea pig brains with cerebellum were thawed for 15 minutes and homogenized with a Polytron in ice-cold 5 mM Tris-HCl, pH 8.0 (10 ml/brain). The homogenate was centrifuged at 37,000×g for 10 minutes, and the pellet was washed by resuspension in the same volume of buffer followed by recentrifugation. The pellets were resuspended in an equal volume of 5 mM Tris-HCl, pH 8.0, and the concentration was adjusted to 50 mM by the addition of 1M Tris-HCl, pH 8.0. The homogenate was centrifuged for 10 min at 37,000×g. The pellets were then washed three times by resuspension and centrifugation using 50 mM Tris-HCl, pH 8.0. The final pellets were resuspended in the Tris-HCl buffer (0.5 ml/brain), pooled and 1 ml aliquots were distributed to microfuge tubes, which were stored at -70° for assay. […]
(§1) Inhibition curves were fit to the two parameter logistic equation for the best-fit estimates of the IC50 using nonlinear least squares curve fitting methods as previously described (Rothman et al. (1993), supra); Jones, S. M. and Rogawski, M. A. Mol. Neuropharmacol. 2: 303-310 (1992)).
(§2) ^a The binding assays for PCP (site 2) and PCP (site 1) were conducte
(§3) as previously reported (Rothman, R. B., et al., In: Multiple Sigma and PC
(§4) Receptor Ligands: Mechanisms for Neuromodulation and Protection 307-330
(§5) (Domino, E. F. and Kamenka, J. M., eds., 1992) using [^3 H]TCP in the
(§6) presence of (+)MK801 for site 2 and [^3 HMK801 for site 1 except that

[3] = test system: PCP site 2; type: binding, guinea pig
Description: Large batches of frozen membranes were prepared with minor modifications of published procedures (Rothman, et al. (1989), supra). Twenty to thirty frozen guinea pig brains with cerebellum were thawed for 15 minutes and homogenized with a Polytron in ice-cold 5 mM Tris-HCl, pH 8.0 (10 ml/brain). The homogenate was centrifuged at 37,000×g for 10 minutes, and the pellet was washed by resuspension in the same volume of buffer followed by recentrifugation. The pellets were resuspended in an equal volume of 5 mM Tris-HCl, pH 8.0, and the concentration was adjusted to 50 mM by the addition of 1M Tris-HCl, pH 8.0. The homogenate was centrifuged for 10 min at 37,000×g. The pellets were then washed three times by resuspension and centrifugation using 50 mM Tris-HCl, pH 8.0. The final pellets were resuspended in the Tris-HCl buffer (0.5 ml/brain), pooled and 1 ml aliquots were distributed to microfuge tubes, which were stored at -70° for assay.
The [^3 H]TCP binding assay for PCP site 2 was conducted with minor modifications of published protocols (Rothman, et al. (1989), supra). Briefly, 12×75 mm polystyrene test tubes were prefilled with 100 μl of [^3 H]TCP (2 nM final concentration) in a protease inhibitor cocktail (PIC) containing 5000 nM (+) -MK801, 100 μl of distilled H2 O or drug (in distilled H2 0), 50 μl of buffer (5 mM Tris-HCL, pH 8.0), and 750 μl of membrane (0.5-1.0 mg/ml protein, in 5 mM Tris-HCl, pH 8.0). […] The protease inhibitor cocktail was composed of 25 μg/ml leupeptin, 25 μg/ml chymostatin, 0.1 mM EDTA, and 0.1 mM ethylene glycol-bis-(beta-aminoethyl-ether)-N,N,N',N'-tetraacetic acid (EGTA). The incubation time was 18-24 hours at 4° C. (steady state) in a final volume of 1 ml. Triplicate samples were filtered with an MR24 Brandel Cell Harvester and washed with two 5 ml aliquots of ice cold buffer. Whatman GF/B filters were presoaked in buffer containing 2% polyethylenimine. The tritium retained on the filters was measured using a Taurus scintillation counter at 44% efficiency after an overnight extraction into ICN Cytoscint cocktail. Non specific binding was determined using 10 μM of TCP. Protein was determine using the method of Lowry, et al., supra.
as §1, §2, §3, §4, §5, §6
the [^3 H]TCP assays were terminated after 18-24 hours of incubation

[4] = Table 1, [^3 H]TCP in presence of (+)MK801, 18-24 hours at 4° C.

SMILES: c1csc(C2(N3CCCCC3)CCCCC2)c1 [TCP]
- binding of [^3 H]TCP to two sites (PCP site 1 and PCP site 2) [1]: high affinity

SMILES: c1csc(CC2CC3CN2Cc2ccccc23)c1 (stereo not drawn) [RTI-4793-55]
- IC50 ([2]; Table 3, guinea pig membranes): > 2000 nM
- IC50 ([3]; Table 3, guinea pig membranes): 43.2 ± 6.58 nM

SMILES: CC[C@H]1C[C@@H]2Cc3ccccc3[C@@H]2N1C (relative stereo) [3e]
- affinity for PCP site 1 in words [2]: low affinity at both sites
- IC50 ([2]; Table 1, [^3 H]MK801): > 20000 nM
- IC50 [3, 4]: 326 ± 49 nM
- relative potency for site 2 versus 3b ([3]; versus 3b): approximately ten-times less than that of 3b

SMILES: c1ccc(CC2CC3CN2Cc2ccccc23)cc1 (single isomer, unassigned; (-)) [(-)-RTI-4793-41]
- IC50 ([2]; Table 3, guinea pig membranes): > 2000 nM
- IC50 ([3]; Table 3, guinea pig membranes): 28.9 ± 3 nM

SMILES: CN1[C@@H](Cc2ccccc2)C[C@@H]2Cc3ccccc3[C@@H]21.O=C(O)c1ccc(O)cc1O [(-)-RTI-4793-14]
- IC50 ([2]; Table 3, guinea pig membranes): > 2000 nM
- IC50 ([3]; Table 3, guinea pig membranes): 316 ± 58.7 nM

SMILES: COc1ccc(CC2CC3CN2Cc2ccccc23)cc1 (stereo not drawn) [RTI-4793-49]
- IC50 ([2]; Table 3, guinea pig membranes): > 2000 nM
- IC50 ([3]; Table 3, guinea pig membranes): 106 ± 13.8 nM

SMILES: CN1[C@@H](Cc2ccc(Cl)cc2)C[C@@H]2Cc3ccccc3[C@@H]21 (racemic) [RTI-4793-45, (2RS,3aSR,8bRS)-1,2,3,3a,4,8b-Hexahydro-2-(4-chlorobenzyl)-1-methylindeno-[1,2-b]pyrrole Hydrochloride]
- IC50 ([2]; Table 3, guinea pig membranes): > 2000 nM
- IC50 ([3]; Table 3, guinea pig membranes): 254 ± 18 nM

SMILES: CN1[C@H](Cc2c[nH]c3ccccc23)C[C@H]2Cc3ccccc3[C@H]21 (relative stereo) [RTI-4793-44, (2RS, 3aSR, 8bRS) -1,2,3,3a, 4,8b-Hexahydro-2-(3-methanoindole)-1-methylindeno-[1,2-b]pyrrole Hydrochloride]
- IC50 ([2]; Table 3, guinea pig membranes): > 2000 nM
- IC50 ([3]; Table 3, guinea pig membranes): 114 ± 12 nM

SMILES: c1ccc(CCC2CC3CN2Cc2ccccc23)cc1 (stereo not drawn) [RTI-4793-51]
- IC50 ([2]; Table 3, guinea pig membranes): > 2000 nM
- IC50 ([3]; Table 3, guinea pig membranes): 289 ± 22 nM

SMILES: c1ccc(CCCCC2CC3CN2Cc2ccccc23)cc1 (stereo not drawn) [RTI-4793-52]
- IC50 ([2]; Table 3, guinea pig membranes): > 2000 nM
- IC50 ([3]; Table 3, guinea pig membranes): 302 ± 28 nM

SMILES: c1ccc(CC2CC3CN2Cc2ccccc23)cc1 (single isomer, unassigned; (+)) [(+)-RTI-4793-41]
- IC50 ([2]; Table 3, guinea pig membranes): > 2000 nM
- IC50 ([3]; Table 3, guinea pig membranes): 4.4 ± 0.7 nM
- IC50 ([3]; Table 3, guinea pig membranes, listed as (+) optical isomer of RTI-4793-41): 4.4 nM

SMILES: CCOC(=O)[C@H]1C[C@@H]2Cc3ccccc3[C@@H]2N1C (relative stereo) [3d]
- IC50 ([2]; Table 1, [^3 H]MK801): > 20000 nM
- IC50 [3, 4]: 16700 nM

SMILES: c1ccc(C2CCC3CN2Cc2ccccc23)cc1 (stereo not drawn) [RTI-4793-48]
- IC50 ([2]; Table 3, guinea pig membranes): > 2000 nM
- affinity/selectivity for PCP site 2 in words [3]: high affinity and selectivity
- IC50 ([3]; Table 3, guinea pig membranes): 42 nM and 42.3 nM

SMILES: COc1ccc(C[C@@H]2C[C@H]3Cc4ccccc4[C@H]3N2C)cc1 (relative stereo) [RTI-4793-46, (2RS,3aSR,8bRS)-1,2,3,3a,4,8b-Hexahydro-2-(4-methoxybenzyl)-1-methylindeno[1,2-b1pyrrole Hydrochloride]
- IC50 ([2]; Table 3, guinea pig membranes): > 2000 nM
- IC50 ([3]; Table 3, guinea pig membranes): 148 ± 23 nM

SMILES: c1ccc(CC2CC3CN2Cc2ccccc23)cc1 (stereo not drawn) [RTI-4793-41]
- IC50 ([2]; Table 3, guinea pig membranes): > 2000 nM
- affinity/selectivity for PCP site 2 in words [3]: high affinity and selectivity
- IC50 ([3]; Table 3, guinea pig membranes): 15 nM and 15.6 nM

SMILES: BrC1CC2CN(Cc3ccccc32)C1c1ccccc1 (stereo not drawn) [RTI-4793-47]
- IC50 ([2]; Table 3, guinea pig membranes): > 2000 nM
- IC50 ([3]; Table 3, guinea pig membranes): 68.8 ± 11.5 nM

SMILES: CN1CC[C@@H]2Cc3ccccc3[C@@H]21 (relative stereo) [3a]
- affinity for PCP site 1 in words [2]: low affinity at both sites
- IC50 ([2]; Table 1, [^3 H]MK801): > 20000 nM
- affinity/selectivity for PCP site 2 in words [3]: low affinity at both sites
- IC50 [3, 4]: > 10000 nM

SMILES: Fc1ccc(CC2CC3CN2Cc2ccccc23)cc1 (stereo not drawn) [RTI-4793-50]
- IC50 ([2]; Table 3, guinea pig membranes): > 2000 nM
- IC50 ([3]; Table 3, guinea pig membranes): 73.5 ± 9 nM
